Like-named read-outs stand apart in the source and are kept apart here.
Columns and labels:
tps1Δ cells [1] = assay: Zero-trans glucose uptake in tps1Δ yeast cells; format: cell-based, S. cerevisiae; settings: for Ki: Dixon plot analysis
Experimental: Zero-trans uptake of radioactively labeled [U-^14C]glucose, [U-^14C]fructose or [U-^14C]galactose by S. cerevisiae cells was determined in accordance with previous studies^44,66. Cells were grown on different carbon sources depending on the experiment. For measuring glucose uptake activity in the tps1Δ and tps1Δ hxtA strains (FIG. 1b,c), cells were grown on YP medium containing 3% glycerol (measurement of 10s). Typically, for compound characterization and kinetic studies in wild type and tps1Δ strains, cells were (pre)grown on Complete Synthetic medium supplemented with 2% galactose (measurement of 10s). In the experiments on the influence of hexokinase activity on the sugar uptake rate, the measurement duration was shortened to 5s and cells were always grown on YP medium containing 3% glycerol and 2% ethanol. After harvesting, cells were washed twice with ice-cold 25 mM MES-buffer pH 6, and resuspended in their respective medium without sugar to a final concentration of 45 mg (wet weight)/mL. The amount of added tracer was estimated to give a response close to at least 1000 counts per min in order to adequately counter background noise. Cells were first preincubated for 10 min at 30° C. with the compound to acclimate the cells to the temperature and to allow adequate interaction with the compound prior to uptake. Next, hexose sugar was mixed with the cell suspension, which was then incubated for 5 or 10 s, depending on the experiment, after which the cells were rapidly filtered over a glass microfiber filter (Whatman GF/C) and washed three times with ice-cold dH2O. The loaded filter was transferred to a scintillation vial containing 3 mL liquid scintillation cocktail (Ultima-Flo M, Perkin Elmer) and counted using the Hidex 300 SL. Three blank measurements per strain were typically included to account for background signal, for which the cells were first quenched before adding the radioactive label.

tps1Δ cells [2] = assay: Glu6P and Fru1,6bisP levels after glucose addition to tps1Δ cells; format: cell-based, S. cerevisiae
Experimental: For measuring metabolite levels, cells were typically grown in Complete Synthetic medium. […] However, when comparing the effect of Warbicins on metabolite profiles of wild type and tps1Δ strains (FIG. 2f-k), cells were grown on 2% galactose. When grown to exponential phase, cells were harvested by centrifugation and washed twice with ice-cold 25 mM 2-(N-Morpholino)ethanesulfonic acid (MES) buffer, pH 6. Cells were suspended in Complete Synthetic medium without sugar at a concentration of 75 mg (wet weight)/mL followed by a temperature equilibration at 30° C. in a shaking water bath for 30 min. Depending on the experiment, a final concentration of 2.5 mM, 7.5 mM or 10 mM glucose was added to the cell suspension. Compounds were added 10 min prior to glucose addition. […]
Through endpoint measurement of the absorbance of NADH or NADPH at 340 nm, metabolite concentrations were calculated by applying Lambert's Law. Different metabolites were measured through the use of coupled enzymatic reactions. […] Depending on the measured metabolite, different co-factors and auxiliary enzymes were added. For measuring glucose-6-phosphate, 0.8 mg/ml NADP^+ was added to the assay buffer after which the baseline absorbance was measured. […] After stabilization of the OD340 spectra, ATP concentrations were measured by additionally adding 10 mM MgCl2 and 0.5 mM glucose to the assay buffer. […]

[3] = system: A549 lung adenocarcinoma cells; assay: A549 cell proliferation / growth inhibition; format: cell-based, human
Summary of the method: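 A549 growth screened in RPMI with 1 mM glucose, compounds at 50 μM; cell number from counts of Hoechst-stained nuclei after 3 days. Growth curves also followed by IncuCyte phase-contrast confluency over 3–5 days (1000–1500 cells/well), DMSO ≤0.1%, ≥4 technical repeats.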

Q: For Cc1nc(Sc2nnc3n2CCCCC3)c2c(-c3cccs3)csc2n1 [WBC-A], which Ki (tps1Δ cells [1]) is on record?
A: 8.35 µM

Q: And the Ki (tps1Δ cells [1]; printed K′, read-out: K′i, glucose uptake, tps1Δ cells)?
A: 35.4 µM

Q: What about the “Type of inhibition of glucose uptake, tps1Δ cells” value (tps1Δ cells [1]; Lineweaver-Burk plot analysis) of the same molecule?
A: mixed type

Q: What about the “Glu6P and Fru1,6bisP hyperaccumulation after addition of 2.5 mM glucose” value (tps1Δ cells [2]) of the same molecule?
A: concentration-dependent gradual drop in Glu6P and a more precipitous drop in Fru1,6bisP

Q: What about the “Potency in reducing maximal growth rate of A549 cells” value ([3]; 1 mM glucose, 6.25-50 μM) of the same molecule?
A: intermediate potency

Q: What about the “Proliferation of A549 cells in RPMI medium with 1 mM or 5 mM glucose” value ([3]; 12.5-50 μM WBC-A) of the same molecule?
A: dose-dependent inhibition of growth
